Test results reported in PubChem BioAssay (NCI).
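The compound was tested at five concentrations on cells cultured in 96-well plates, with a 48-hour exposure period. At the TGI there is no net growth.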

Legend:
Assay in all cases: NCI-60 cell line screen, 48 h
T-47D breast = system: T-47D breast
OVCAR-5 ovarian = system: OVCAR-5 ovarian
HOP-62 NSCLC = system: HOP-62 NSCLC
MDA-MB-231 breast = system: MDA-MB-231 breast
OVCAR-4 ovarian = system: OVCAR-4 ovarian
K-562 leukemia = system: K-562 leukemia
SW-620 colon = system: SW-620 colon
DU-145 prostate = system: DU-145 prostate
M14 melanoma = system: M14 melanoma
SR leukemia = system: SR leukemia
NCI-H23 lung = system: NCI-H23 lung
SK-MEL-5 melanoma = system: SK-MEL-5 melanoma
NCI-H460 lung = system: NCI-H460 lung
MOLT-4 leukemia = system: MOLT-4 leukemia
MALME-3M melanoma = system: MALME-3M melanoma
SK-MEL-2 melanoma = system: SK-MEL-2 melanoma
NCI/ADR-RES ovarian = system: NCI/ADR-RES ovarian
NCI-H522 lung = system: NCI-H522 lung
RXF 393 renal = system: RXF 393 renal
OVCAR-3 ovarian = system: OVCAR-3 ovarian
MDA-N = system: MDA-N
IGROV1 ovarian = system: IGROV1 ovarian
CAKI-1 renal = system: CAKI-1 renal
U251 CNS = system: U251 CNS
A549 NSCLC = system: A549 NSCLC
786-0 renal = system: 786-0 renal
PC-3 prostate = system: PC-3 prostate
UACC-257 melanoma = system: UACC-257 melanoma
CCRF-CEM leukemia = system: CCRF-CEM leukemia
HS 578T breast = system: HS 578T breast
MCF7 breast = system: MCF7 breast
UO-31 renal = system: UO-31 renal
HT29 colon = system: HT29 colon
OVCAR-8 ovarian = system: OVCAR-8 ovarian
HCC-2998 colon = system: HCC-2998 colon
HOP-92 NSCLC = system: HOP-92 NSCLC
BT-549 breast = system: BT-549 breast
HCT-15 colon = system: HCT-15 colon
RPMI-8226 leukemia = system: RPMI-8226 leukemia
SK-OV-3 ovarian = system: SK-OV-3 ovarian
EKVX NSCLC = system: EKVX NSCLC
SF-295 CNS = system: SF-295 CNS
LOX IMVI melanoma = system: LOX IMVI melanoma
MDA-MB-435 = system: MDA-MB-435
KM12 colon = system: KM12 colon
NCI-H226 lung = system: NCI-H226 lung
SNB-19 CNS = system: SNB-19 CNS
ACHN renal = system: ACHN renal
TK-10 renal = system: TK-10 renal
UACC-62 melanoma = system: UACC-62 melanoma
HL-60(TB) leukemia = system: HL-60(TB) leukemia
SF-539 CNS = system: SF-539 CNS
SF-268 CNS = system: SF-268 CNS
A498 renal = system: A498 renal
HCT-116 colon = system: HCT-116 colon
SNB-75 CNS = system: SNB-75 CNS
SK-MEL-28 melanoma = system: SK-MEL-28 melanoma
SN12C renal = system: SN12C renal
COLO 205 colon = system: COLO 205 colon

`Cc1cc2c(C(C)C)c(O)c(O)c(C=NCC3CCCN4CCCCC34)c2cc1-c1cc2c(C=NCC3CCCN4CCCCC34)c(O)c(O)c(C(C)C)c2cc1C` (centres undefined) gave a TGI (T-47D breast) of over 31 µM, a TGI (OVCAR-5 ovarian) of 38.8 µM and a TGI (HOP-62 NSCLC) of over 38.7 µM. The TGI (MDA-MB-231 breast) was 14.7 µM, the TGI (OVCAR-4 ovarian) was 43.3 µM and the TGI (K-562 leukemia) was 38.2 µM. It also gave a TGI (SW-620 colon) of over 56.1 µM, a TGI (DU-145 prostate) of over 64.3 µM and a TGI (M14 melanoma) of 33.9 µM. It also gave a TGI (SR leukemia) of over 100 µM, a TGI (NCI-H23 lung) of 27.1 µM and a TGI (SK-MEL-5 melanoma) of 15.5 µM. It also gave a TGI (NCI-H460 lung) of 38.7 µM, a TGI (MOLT-4 leukemia) of 20 µM and a TGI (MALME-3M melanoma) of 30.2 µM. The TGI (SK-MEL-2 melanoma) was 31.5 µM, the TGI (NCI/ADR-RES ovarian) was 20.6 µM and the TGI (NCI-H522 lung) was 11.3 µM. For the same molecule, the TGI (RXF 393 renal) was 22.6 µM, the TGI (OVCAR-3 ovarian) was 29 µM and the TGI (MDA-N) was 20.9 µM. It also gave a TGI (IGROV1 ovarian) of 21.6 µM, a TGI (CAKI-1 renal) of 14.6 µM and a TGI (U251 CNS) of 21.5 µM. The TGI (A549 NSCLC) was over 75.1 µM, the TGI (786-0 renal) was over 67.9 µM and the TGI (PC-3 prostate) was 26.3 µM. For the same molecule, the TGI (UACC-257 melanoma) was 51.9 µM, the TGI (CCRF-CEM leukemia) was 7.75 µM and the TGI (HS 578T breast) was 54.5 µM. It also gave a TGI (MCF7 breast) of 37 µM, a TGI (UO-31 renal) of over 45.5 µM and a TGI (HT29 colon) of 13.3 µM. For the same molecule, the TGI (OVCAR-8 ovarian) was 19 µM, the TGI (HCC-2998 colon) was 46.3 µM and the TGI (HOP-92 NSCLC) was over 100 µM. The TGI (BT-549 breast) was 36.4 µM, the TGI (HCT-15 colon) was 41.3 µM and the TGI (RPMI-8226 leukemia) was 58.5 µM. It also gave a TGI (SK-OV-3 ovarian) of 18.1 µM, a TGI (EKVX NSCLC) of 31.8 µM and a TGI (SF-295 CNS) of 25.9 µM. It also gave a TGI (LOX IMVI melanoma) of over 49.1 µM, a TGI (MDA-MB-435) of 25.8 µM and a TGI (KM12 colon) of 17.7 µM. The TGI (NCI-H226 lung) was 43.2 µM, the TGI (SNB-19 CNS) was 69.9 µM and the TGI (ACHN renal) was 17.9 µM. For the same molecule, the TGI (TK-10 renal) was 32.5 µM, the TGI (UACC-62 melanoma) was 39.3 µM and the TGI (HL-60(TB) leukemia) was 9.62 µM. It also gave a TGI (SF-539 CNS) of 85.9 µM, a TGI (SF-268 CNS) of 19.1 µM and a TGI (A498 renal) of over 61.7 µM. For the same molecule, the TGI (HCT-116 colon) was over 100 µM, the TGI (SNB-75 CNS) was 31.3 µM and the TGI (SK-MEL-28 melanoma) was 39.5 µM. It also gave a TGI (SN12C renal) of 17.1 µM and a TGI (COLO 205 colon) of 12.3 µM.
